Laboratory results published in PMC11063903, “Engineering a human P2X2 receptor with altered ligand selectivity in yeast” (The Journal of Biological Chemistry, 2024).

How the values were obtained:
[1] = target: T1, P2X2 F303Y+A304W (Homo sapiens, UniProt Q9UBL9, A304W/F303Y); test: Fast GCaMP-mScarletI assay in yeast, P2X2 F303Y+A304W; format: cell-based; settings: for Bottom, best fit value / Hillslope, best fit value / Top, best fit value: four-parameter logistic fit of ΔF/ΔT
T1 construct: expressed in transfected cells; host or cells: S. cerevisiae BY4741 background
T1 sequence (Q9UBL9 1-471 F303Y/A304W): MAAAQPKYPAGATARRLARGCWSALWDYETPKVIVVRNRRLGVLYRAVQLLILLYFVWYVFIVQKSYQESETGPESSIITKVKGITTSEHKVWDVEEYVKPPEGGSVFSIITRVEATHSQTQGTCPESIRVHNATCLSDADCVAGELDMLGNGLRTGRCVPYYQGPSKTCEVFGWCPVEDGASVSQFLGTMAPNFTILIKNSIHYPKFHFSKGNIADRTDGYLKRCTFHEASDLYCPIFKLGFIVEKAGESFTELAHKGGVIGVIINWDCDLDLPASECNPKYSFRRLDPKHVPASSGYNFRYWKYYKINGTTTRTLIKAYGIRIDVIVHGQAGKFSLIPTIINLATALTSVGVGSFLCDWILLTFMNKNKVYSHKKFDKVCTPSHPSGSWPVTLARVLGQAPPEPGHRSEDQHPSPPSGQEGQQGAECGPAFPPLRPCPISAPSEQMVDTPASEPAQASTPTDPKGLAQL
Procedure: Figure 4 Unnatural-ligand gating in LBD libraries.A, WT P2X2 was tested with 1 mM ATP, 500 μM AMP-PNP, and compared to ATP with the broken receptor (K81C K83C) control with 1 mM ATP in the fast GCaMP-mScarletI assay (n = 3). […] B, heat map summarizing AMP-PNP signaling (ΔF/ΔT, fast GCaMP-mScarletI assay) in the site-saturation libraries (n = 2–3). All values are normalized to WT P2X2 with saturating amounts of AMP-PNP (500 μM) and therefore represent low signal (ΔF/ΔT) compared to the ATP ligand. C, F301W, F303Y, and A304W were combinatorially combined and tested against the WT, K81C K83C broken P2X2, and the single mutant clones with both ATP (1 mM, black) and AMP-PNP (500 μM, pink). […] Values here represent signal onset and are not normalized to a positive control (n = 2–5). D–K, dose response of each P2X variant with both ATP (black) and AMP-PNP (pink) in the fast GCaMP-mScarletI assay (n = 3). Statistics were performed via one-way ANOVA with Dunnett’s multiple comparisons with to the “broken” K81C K83C negative control. ∗ represents a p value ≤0.05, ∗∗ is p ≤ 0.01, and ∗∗∗ is p ≤ 0.001.
The combined mutations were synergistic, with F303Y + A304W having a predicted additive effect of ca. Ten-fold, relative to the 73-fold seen.
GCaMP assays were performed as follows. P2X2 GCaMP strains were designed with a bi-cistronic reporter, in which the GCaMP protein was followed by a 2A peptide and a mScarletI reporter ([53]). The co-translated mScarletI was designed to act as a control for plasmid loss, GCaMP breakage via nonsense mutation, and contamination. […] P2X2-GCaMP strains were cultured and induced as previously described. Samples were induced for 24 h to allow for the accumulation of the mature GCaMP protein. Cells were washed three times in 0.1 M MES/Tris buffer and resuspended with MES/Tris with supplemental calcium. Cells were loaded onto a black, clear bottom microplate and imaged on a FlexStation3 plate reader. Samples were imaged in “flex” mode. Samples were imaged for 48 s at an interval of 1.6 s. Fluorescence was measured with an excitation at 485 nm, and emission 525 nm. At the 21 s mark, 100 μl ligand solution was transferred to the cells. For strains with mScarlet, fluorescence was read with excitation 570 nm/emission 610 nm. Slopes were calculated from the last 6 points of measurement and were normalized to the positive control samples. Any replicate in which the mScarlet value was measured to be over 2 standard deviations less than the mean for that set was discarded from further analysis.
For multiple comparisons in the site-saturation screening data, One-way ANOVA with Dunnett’s multiple comparisons test was performed where every sample was compared to the “broken” negative control. Significance was plotted where ∗ represents a p value ≤0.05, ∗∗ is p ≤0.01, and ∗∗∗ is p ≤0.001. Dose–response curves were fit with nonlinear regression software using a four-parameter logistic curve. All statistics were calculated and plotted in Graphpad Prism software.

[2] = target: T2, P2X2 R302 glutamine (R302Q) (Homo sapiens, UniProt Q9UBL9, R302Q); test: Site-saturation screen of ligand-binding domain with ATP, R302 glutamine; format: cell-based; settings: 500 μM ATP, ± sd
T2 construct: expressed in transfected cells; host or cells: S. cerevisiae BY4741 background
T2 sequence (Q9UBL9 whole entry R302Q, the tested form may be a part): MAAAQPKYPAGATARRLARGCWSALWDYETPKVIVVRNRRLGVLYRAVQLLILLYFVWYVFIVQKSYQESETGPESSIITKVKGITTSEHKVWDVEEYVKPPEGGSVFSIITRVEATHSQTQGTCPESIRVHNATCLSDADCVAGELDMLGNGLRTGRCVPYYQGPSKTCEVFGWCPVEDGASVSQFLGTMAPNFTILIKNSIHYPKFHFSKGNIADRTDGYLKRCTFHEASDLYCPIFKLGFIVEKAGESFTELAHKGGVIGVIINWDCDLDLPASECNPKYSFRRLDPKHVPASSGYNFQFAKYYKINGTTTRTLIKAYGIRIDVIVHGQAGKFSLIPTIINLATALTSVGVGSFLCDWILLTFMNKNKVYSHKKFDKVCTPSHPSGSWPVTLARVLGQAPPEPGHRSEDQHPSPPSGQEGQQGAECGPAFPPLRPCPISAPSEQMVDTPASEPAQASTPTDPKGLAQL
Text: (§1) The yeast P2X2 screening platform poses an opportunity to probe the structure-function of the ligand-binding domain in detail. The conserved P2X “NFR” motif at residues 300 to 302 is directly involved in bonding to the ATP triphosphate moiety ([41]), so we mutagenized residues at or near this motif (298–304), ultimately covering 133 variants (7 sites, 19 residues each). […] We compared our results to phylogenetic data based on a multiple sequence alignment (MSA) from a curated set of 419 related P2X homologs (Figs. 3B, and S5; Table S1).
(§2) Figure 3 Structure-function analysis of the ligand binding domain.A, heat map summarizing the screening data of ATP with seven site-saturation libraries surrounding the NFR-motif. B, sequence-logo plot of the mutagenized residues and percent identity scores as determined from MSA. C, homology model of P2X2 colored by sequence conservation as calculated from a multiple sequence alignment of 419 related P2X genes. Conservation is scored on a log scale where maroon is more conserved and blue is less conserved. D, ATP in the ligand-binding pocket of P2X2. […]
(§3) GCaMP assays were performed as follows. […] Cells were loaded onto a black, clear bottom microplate and imaged on a FlexStation3 plate reader. […] Fluorescence was measured with an excitation at 485 nm, and emission 525 nm. […] For strains with mScarlet, fluorescence was read with excitation 570 nm/emission 610 nm. […]

[3] = target: T3, P2X2 R302 lysine (R302K) (Homo sapiens, UniProt Q9UBL9, R302K); test: Site-saturation screen of ligand-binding domain with ATP, R302 lysine; format: cell-based; settings: 500 μM ATP, ± sd
T3 construct: expressed in transfected cells; host or cells: S. cerevisiae BY4741 background
T3 sequence (Q9UBL9 whole entry R302K, the tested form may be a part): as the sequence (Q9UBL9 whole entry R302Q, the tested form may be a part) above, with Q302K counted along it
Text: as §1, §2, §3

[4] = system: P2X2; parameters: method as in PMID 10570044; settings: human glia; read-out: EC50, previously published value; cited from earlier work

| Structure (SMILES) | increased intracellular calcium amplitudes compared to the WT receptor ([1]; AMP-PNP, abstract) | increased signal compared to the WT channel (rate of signal onset ΔF/ΔT) ([1]; at 500 μM AMP-PNP) | Bottom, best fit value ([1]; n = 3) | Hillslope, best fit value ([1]; n = 3) | Top, best fit value ([1]; n = 3) | signal, % of WT signaling [2] | EC50 ([1]; four-parameter logistic fit, n = 3, unit inferred, unit M, read-out: EC50, best fit value) | signal, % of WT signaling [3] | EC50 [4] |
| --- | --- | --- | --- | --- | --- | --- | --- | --- | --- |
| Nc1ncnc2c1ncn2[C@@H]1O[C@H](COP(=O)(O)OP(=O)(O)NP(=O)(O)O)[C@@H](O)[C@H]1O [AMP-PNP] | over 100 fold | 73 fold | 1.254 | 2.515 | 114.4 |  |  |  |  |
| Nc1ncnc2c1ncn2[C@@H]1O[C@H](COP(=O)(O)OP(=O)(O)OP(=O)(O)O)[C@@H](O)[C@H]1O [ATP] |  |  | 1.98 | 3.50 | 150.00 | 25 ± 28% | 6.67 µM | 43 ± 15% | 6 µM |
